“Also recorded” adds a separate entry of the source. Square brackets hold non-standard residues; d marks the D form. Peptide text beside a SMILES is read from it. N(1-naphthylmethyl)Gly = O=C(O)CNCc1cccc2ccccc12; 2Nal = N[C@@H](Cc1ccc2ccccc2c1)C(=O)O; d1Nal = N[C@H](Cc1cccc2ccccc12)C(=O)O; N(4-MeBn)Gly = Cc1ccc(CNCC(=O)O)cc1; dNle = CCCC[C@@H](N)C(=O)O; Nle = CCCC[C@H](N)C(=O)O; NBuGly = CCCCNCC(=O)O

The test system of one data set is MRSP C22963. Description: Time-kill kinetics, MRSP C22963. The following applies: for time to complete killing of the MRSP strain: all tested concentrations at or above the MIC. Type of data set: cell-based, Staphylococcus pseudintermedius. As for the experimental part: (§1) Time kill assays were performed in triplicate, meaning that every value is the average of three different samplings. Time–kill kinetic assays were performed using P. aeruginosa (26314), MRSP E104 and/or MRSP C22963 to determine the cell killing activity of B1 and two of its most promising analogues (compounds 23 and 26) based on prior antimicrobial susceptibility testing. The method reported by Blondeau et al.[63] was followed with minor modifications. Briefly, the assay was performed in MHB II with concentrations corresponding to 0.5, 1, 2 and 4 times the MIC of the strain. After 0, 15, 30, 60, 120, 180 and 300 min of growth, 100 μL aliquots were collected and 10-fold serially diluted. Twenty μL of cell suspension from each dilution were spotted in triplicate on blood agar plates followed by 16–18 h incubation at 37 °C and determination of colony forming units (CFU).

The test system of data set [1] is MRSP E104. Briefly: Time-kill kinetics, MRSP E104. It is filed as cell-based, Staphylococcus pseudintermedius. As for the experimental part: as §1, with “Briefly, the assay was performed in MHB II with concentrations corresponding to 0.5, 1, 2 and 4 times the MIC of the strain.” left out
The test system of data set [2] is MRSP E104. Description: High-throughput growth curves (BioScreen). Type of data set: cell-based, Staphylococcus pseudintermedius. As to conditions: 3 µg/ml; decrease of OD over time. As for the experimental part:
The effects of B1 on the growth of a reference MRSP strain (ST71, E104) were evaluated using BioScreen (Oy Growth Curves Ab LTd, Finland). A well characterized antimicrobial peptide, Nisin, was used as a positive control. […] The OD600 of each micro-culture was measured and recorded every 15 min after a 5 second pause of shaking in automatic mode. The recorded ODs were plotted against time to prepare the growth curves. The assay was performed with technical and biological replicates, and one representative result was presented.

The test system of data set [3] is DNA synthesis in MRSP E104. Briefly: Macromolecule biosynthesis rate, DNA (3H-Thymidine). As to conditions: MRSP E104, 1.5 µg/mL, 20 min. It is filed as cell-based, Staphylococcus pseudintermedius. As for the experimental part: Macromolecule biosynthesis rate was measured in MRSP E104 following a protocol adapted from Ling et al.[65]. Briefly, E104 overnight culture was sub-cultured 1:100 in MHB II and grown up to OD 0.2 at 600 nm. Cells were pelleted down by centrifugation and resuspended in fresh medium followed by incubation for 20 min with B1 or nisin at 1.5 µg/ml and 1.25 µg/ml, respectively, and radiolabeled precursor: (50µCi) 3H-Thymidine (PerkinElmer) and (5µCi) 3H-glucosamine hydrochloride per ml for DNA and cell wall, respectively. A positive control without antimicrobial was maintained. After incubation, samples were precipitated with equal volume of cold 30% TCA (Sigma) on ice. Precipitates were filtered on a membrane filter and subsequently subjected to two washes of cold 15% TCA and two washes of cold water using vacuum manifold. Subsequently, filters were air dried overnight and then transferred to 10 ml scintillation vials. Finally, scintillation fluid (3 ml) was added to each vial and ^3H count was taken in Beckman Coulter LS6500 liquid scintillation counter for one minute. The radioactive counts of the control samples were considered to have 100% precursor incorporation and macromolecule synthesis. The percentage rates of the antimicrobial-exposed samples were calculated accordingly. Each experiment was performed with replicates and the average rates of incorporation were plotted.

In data set [4] the test system is membrane potential of MRSP E104. Briefly: DiSC3(5) fluorescence-based membrane potential study. It is filed as cell-based, Staphylococcus pseudintermedius. The following applies: MRSP E104, sub-inhibitory concentration 1.5 µg/mL. As for the experimental part: Freshly sub-cultured E104 cells were labelled with 1 µM 3,3-Dipropylthiadicarbocyanine iodide [DiSC3(5)] (Sigma) in MHB II. The fluorescence spectra of labelled cells were plotted in the LS50B luminescence spectrometer (PerkinElmer) at excitation/emission wavelengths 546 nm/573 nm using time drive application of FLWINLAB software. After reading an initial stable emission spectra of DiSC3(5), labelled cells were treated with B1 or nisin or protonophore CCCP at 1, 1.5 and 1.25 µg/ml, respectively and the change of fluorescence over time was recorded. The increment of DiSC3(5) fluorescence upon addition of antimicrobials or CCCP (FUafter-treatment – FUbefore-treatment) was plotted. This experiment was performed twice and each time with two technical replicates.

For data set [5], the system named is MRSP E104. Description: Flow cytometry (TO/PI) of antimicrobial-exposed cells. The following applies: MRSP E104, lysis concentration (1x MIC), 3 µg/ml, 1 h. Type of data set: cell-based, Staphylococcus pseudintermedius. As for the experimental part: Freshly grown cultures (OD 0.2 at 600 nm) of MRSP E104 were exposed to 3 µg/ml of B1 or 2.5 µg/ml of nisin for 1 h and diluted 1:10 in flow cytometry analysis buffer (PBS supplemented with 1 mM EDTA, 0.01% Tween 20 and filtered by 0.22 µm membrane). Diluted cells were stained with 420 nM thiazole orange (TO, Sigma) and 48 µM propidium iodide (PI, Sigma) and analysed using BD ACCURI C6 flow cytometer (BD Biosciences). Unstained cells were used as negative control. Finally, the differentially labelled bacterial populations in antimicrobial-exposed cultures were plotted under FL3(red)/FL1(green) axis using the instrument’s software and categorised into four different conditions: P1 (unstained), P2 (dead cells), P3 (injured cells) and P4 (live cells).
For orientation: A flow cytometer gives signals particle by particle.

The subject of another data set is human red blood cells. Also noted: method as in PMID 29534469. As to conditions: at 150 µM; cited from earlier work.
For data set [6] the following is noted: topical delivery from cream formulation; cited from earlier work.

Regarding `CCCC[C@H](NC(=O)[C@H](CCCCN)NC(=O)[C@H](CCCCN)NC(=O)[C@@H](N)CCCCN)C(=O)N[C@@H](Cc1ccc2ccccc2c1)C(=O)N[C@@H](Cc1ccccc1)C(=O)N[C@@H](Cc1ccc2ccccc2c1)C(N)=O` [Compound 23, Lys-Lys-Lys-Nle-(2-Nal)Ala-Phe-(2-Nal)Ala] (H-KKK[Nle][2Nal]F[2Nal]-NH2), the “time to complete killing of the MRSP strain” value in the data set on MRSP C22963 is ≤ 2 h.

As to `CCCC[C@@H](NC(=O)[C@H](CCCCN)NC(=O)[C@H](CCCCN)NC(=O)[C@@H](N)CCCCN)C(=O)N[C@H](Cc1cccc2ccccc12)C(=O)N[C@H](Cc1ccccc1)C(=O)N[C@H](Cc1cccc2ccccc12)C(N)=O` [Compound 26, Lys-Lys-Lys-nle-(1-Nal)ala-phe-(1-Nal)ala] (H-KKK[dNle][d1Nal][dF][d1Nal]-NH2; N-terminus assumed), the “time to complete killing of MRSP C22963” value in the data set with MRSP C22963 (0.5x MIC) is ≤ 1 h. Moreover, the “time to complete killing of the MRSP strain” value with MRSP C22963 is ≤ 2 h.

Turning to `CCCCN(CC(=O)N[C@@H](CCCCN)C(=O)N(CC(=O)N(CC(=O)N(CC(N)=O)Cc1cccc2ccccc12)Cc1ccc(C)cc1)Cc1cccc2ccccc12)C(=O)[C@H](CCCCN)NC(=O)[C@@H](N)CCCCN` [B1, Lys-Lys-(NBu)Gly-Lys-(N1-Nal)Gly-(N4-MeBn)Gly-(N1-Nal)Gly] (H-KK[NBuGly]K[N(1-naphthylmethyl)Gly][N(4-MeBn)Gly][N(1-naphthylmethyl)Gly]-NH2), the “time to complete killing of MRSP E104” value with MRSP E104 [1] (2 × MIC) is 2 h; in the data set on MRSP E104 [1] (4 × MIC), 1 h. In the data set with MRSP E104 [1] (8 x MIC), the “time to kill MRSP” value is recorded as “less than 30 min”. The “growth curve effect on MRSP E104” value in the data set with MRSP E104 [2] is “cell lysis”. In addition, the “effect on DNA replication” value in data set [3] was “without affecting DNA replication; also recorded: no effect on DNA replication”. The “membrane potential, DiSC3(5) fluorescence emission” value in data set [4] is reported as “significant membrane depolarization”. Besides, the “flow cytometry PI/TO staining” value in the data set on MRSP E104 [5] is listed as “Cell death”. For the same compound, the hemolytic activity in the data set on human red blood cells was 32%. The “skin penetration after administration” value in data set [6] was “no skin penetration”.

Source of the values: paper PMC6403271, “Characterization, mechanism of action and optimization of activity of a novel peptide-peptoid hybrid against bacterial pathogens involved in canine skin infections” (Scientific Reports, 2019).
